A short description of assay [1]: Inhibitory constant for RTX binding to porcine spinal cord.
Assay [2] can be described thus: Inhibition of [3H]- RTX binding to Vanilloid receptors from pig spinal cord.

Turning to `COc1cc(CC(=O)OCC2=C[C@H]3C4C(C)(C)[C@]4(OC(C)=O)[C@H](OC(=O)Cc4ccccc4)[C@@H](C)[C@]3(O)[C@@H]3C=C(C)C(=O)[C@@]3(O)C2)ccc1O` (stereo partly drawn) [Phenyl-acetic acid (1aR,1bS,4aR,7aS,7bS,8R,9R,9aS)-9a-acetoxy-4a,7b-dihydroxy-3-[2-(4-hydroxy-3-methoxy-phenyl)-acetoxymethyl]-1,1,6,8-tetramethyl-5-oxo-1a,1b,4,4a,5,7a,7b,8,9,9a-decahydro-1H-cyclopropa[3,4]benzo[1,2-e]azulen-9-yl ester], the Ki in assay [1] was 0.12 nM; in assay [2] it was 2100 nM.

Broadly, the Ki is the equilibrium dissociation constant of an inhibitor or competing ligand from its target. Read a high Ki as lower affinity.

For the origin of these results see BindingDB's records for doi:10.1021/jm960063l (Institute, 1996).
